This passage reports TGI results from PubChem BioAssay (NCI).

Structures are written as SMILES.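 Briefly, cells in 96-well plates were exposed to five compound concentrations for 48 h, and endpoints were estimated by linear interpolation. TGI marks complete inhibition of growth.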

Holding throughout (test): inhibition of tumour cell growth, NCI panel, 48 h
Assay [1] concerns A498 renal.
For assay [2], the system named is HCC-2998 colon.
The subject of assay [3] is HL-60(TB) leukemia.
Assay [4] relates to HT29 colon.
For assay [5], the system named is LOX IMVI melanoma.
Assay [6] relates to M14 melanoma.
Assay [7] deals with MCF7 breast.
In assay [8] the test system is MDA-MB-231 breast.
Assay [9] deals with NCI-H23 lung.
Assay [10] has as its system PC-3 prostate.
In assay [11] the test system is SF-539 CNS.
The subject of assay [12] is SK-MEL-2 melanoma.
In assay [13] the test system is SK-MEL-28 melanoma.
Assay [14] has as its system SN12C renal.
The subject of assay [15] is SR leukemia.
Assay [16] relates to T-47D breast.
Assay [17] relates to U251 CNS.
Assay [18] deals with UACC-62 melanoma.
Assay [19] relates to SNB-75 CNS.
Assay [20] has as its system NCI-H226 lung.

For `CC[C@]12C=CCN3CC[C@@]4(c5cc(Br)c(OC)cc5N(C)[C@H]4[C@@](O)(C(=O)N[C@@H](Cc4ccc(O)cc4)C(=O)OC)[C@@H]1O)[C@@H]32`, the TGI in assay [1] stood at 40.8 µM; in assay [2], 94.6 µM; in [3] it was 57.8 µM; in assay [4] it was 30 µM; in [5], 34.8 µM; in assay [6], 95.1 µM. The TGI in assay [7] is above 100 µM; in assay [8], 30.6 µM; in [9], above 100 µM; in [10], above 100 µM; in assay [11], 36.6 µM; in [12], 60.1 µM. Moreover, the TGI is above 100 µM in assay [13]; 37.9 µM in assay [14]; 46.4 µM in assay [15]; above 100 µM in assay [16]; 27.8 µM in [17]; 33.9 µM in [18].
For `Cc1nc2ccccc2c(=O)n1NC(=S)Nc1ccc(Cl)cc1[N+](=O)[O-]`, the TGI in assay [1], in [3], in assay [4], in [6], in assay [7] and in assay [8] was above 100 µM throughout. Moreover, the TGI in assay [9], in assay [10], in assay [11], in assay [12], in [13] and in [14] was above 100 µM in each case. Also, the TGI in [19], in assay [15], in [16], in assay [17] and in assay [18] was above 100 µM in each case.
For the compound `Cc1ccc(-c2nc(-c3cnccn3)n(C3OC(CO)C(O)C(O)C3O)n2)cc1` (configuration not stated), the TGI in assay [2], in assay [3], in [4], in assay [5], in assay [6] and in assay [7] was above 100 µM in each case. The TGI in assay [8], in assay [9], in [10], in [11], in assay [13] and in [14] was above 100 µM throughout. Moreover, the TGI in assay [19], in [15], in assay [16], in [17] and in [18] was above 100 µM in each case.
Regarding `CC(C)=CCN1c2ccc(Cl)cc2NC(=O)CC1C` (configuration not stated), the TGI in [1] was 49 µM; in [2] it was above 100 µM; in assay [3] it was above 100 µM; in assay [4], 37.2 µM; in [5], 33.2 µM; in assay [6] it was 36.1 µM. Further, the TGI in assay [7] turned out to be 45.6 µM; in [8], 45.7 µM; in [20], 46.9 µM; in assay [9], 74.9 µM; in assay [10], 61.1 µM; in assay [11], 45.4 µM. In addition, the TGI in assay [12] is 39.5 µM; in assay [13], above 100 µM; in assay [14] it was 58 µM; in assay [15] it was above 100 µM; in assay [16], above 100 µM; in assay [17] it was 76.6 µM.
As for `CCC1C(=O)C(O)[C@H]2[C@@H]3C(O)CC4=CC(=O)CC[C@]4(C)[C@H]3CC[C@]12C` (some centres not stated), the TGI in assay [1], in assay [2], in assay [3], in assay [4], in assay [5] and in [6] was above 50 µM each time. Also, the TGI in [7], in assay [8], in assay [9], in [10], in [11] and in assay [12] was above 50 µM throughout. The TGI in [13], in assay [14], in assay [19], in [15], in assay [16] and in assay [17] was above 50 µM throughout. In addition, the TGI in assay [18] was above 50 µM.
As to `COC(=O)/C=C(/OC)[C@H](C)[C@H](/C=C/c1csc(-c2csc(C(C)C)n2)n1)OC`, the TGI in assay [1] is above 100 µM; in [3] it was 99.5 µM; in assay [4], above 100 µM; in assay [5] it was 5.07 µM; in assay [6], above 100 µM; in [7], above 100 µM. The TGI in assay [8], in [20], in [9], in assay [10], in [11] and in [12] was above 100 µM in each case. Moreover, the TGI in assay [13], in assay [14], in assay [19], in [15], in [16] and in assay [17] was above 100 µM in each case. The compound further came in with a TGI in assay [18] above 100 µM.
As to `CNC(=O)CN(C)C(=O)CCC(=O)N(C)C`, the TGI in [1], in assay [2], in assay [3], in [4], in [5] and in [6] was above 100 µM in each case. The TGI in [7], in [8], in assay [20], in assay [9], in [10] and in [11] was above 100 µM in each case. The TGI in assay [12], in assay [13], in assay [14], in [19], in assay [16] and in assay [17] was above 100 µM each time. The compound further displayed a TGI in assay [18] above 100 µM.
